The text below walks through data of patent US8389555B2, “Medicaments” (Motac Neuroscience Limited, priority 2007, dated 2013).

Test [1] addresses T1, human dopamine D3 receptors (Homo sapiens, UniProt P35462).
T1 construct: expressed in transfected cells
The test can be described thus: Dopamine D3 receptor binding assay ([3H]spiperone, CHO cell membranes). The following applies: for Ki: human D3 receptors in CHO cells, 0.2 nM [3H]spiperone, mean ± SEM, read-out: Affinity Ki (D3); for Selectivity Ki(D2)/Ki(D3): ratio of Ki(D2) to Ki(D3). How it is done:
(§1) Compounds synthesized in Examples A, B, C and D were assayed to test their affinity for dopamine D3 and D2 receptors.
(§2) METHODS: Dopamine D2S and D3 Receptor Binding Assays
Human D3 receptors stably expressed in CHO cells were used as described by Sokoloff et al. (Sokoloff, P. et al., Eur. J. Pharmacol. 1992, 225, 331-337). The cell line was cultured in Dulbecco's modified Eagle's medium supplemented with 2 mM glutamine, and 10% dialyzed fetal bovine serum, and were grown in an atmosphere of 5% CO2 at 37° C. (Gibco™).
(§3) Human D2S- and D3 receptors expressing cell lines were grown to confluence. The medium was removed, and the cells were washed with 10 ml PBS buffer (140 mM NaCl, 3 mM KCl, 1.5 mM KH2PO4, 8 mM Na2HPO4, pH 7.4) at 4° C. After removing the wash buffer, the cells were scraped from the flasks into 15 ml of ice-cold media, and centrifuged at 3,000 rpm for 10 minutes at 4° C. After centrifugation the medium was removed and the […] resuspended in ice-cold Tris-HCl buffer containing 5 mM MgCl2, pH 7.4 and disrupted with a Polytron and centrifuged at 20,000 rpm, for 30 minutes at 4° C. The pellet was resuspended by sonication in ice-cold Tris-HCl buffer (containing 5 mM MgCl2, pH 7.4), membrane aliquots were stored at −70° C. Determination of membrane protein was carried out by the method of Bradford (Bradford, M. M. Anal Biochem 1976, 72, 248-54).
(§4) Cell membranes containing human D2S and D3 receptors from CHO cells were thawed, rehomogenized with sonication at 4° C. in Tris-HCl, pH 7.4 containing 120 mM NaCl, 5 mM KCl, 2 mM CaCl2 and 1 mM MgCl2 (incubation buffer), and incubated with 0.2 nM [^3H]spiperone (106 Ci·mmol^−1, Amersham Biosciences, Freiburg, Germany), and drug diluted in incubation buffer. Non-specific binding was determined in the presence of 10 μM BP 897 ((Wermuth, C. G. et al. in Chem. Abstr. (Eur. Pat. 0779284, 1997)). Incubations were run at 25° C. for 120 min, and terminated by rapid filtration through PerkinElmer GF/B glass fibre filters (PerkinElmer Life Sciences, Rodgau, Germany) coated in 0.3% polyethylenimine (Sigma-Aldrich, Taufkirchen, Germany) using an Inotech cell harvester (Inotech AG, Dottikon, Switzerland). Unbound radioligand was removed with four washes of 1 ml of ice-cold 50 mM Tris-HCl buffer, pH 7.4, containing 120 mM NaCl. The filters were soaked in 9 ml Beta plate scint scintillator and counted using a PerkinElmer MicroBeta®Trilux scintillation counter (PerkinElmer Life Sciences). Competition binding data were analyzed by the software GraphPad Prism™ (2000, version 3.02, San Diego, Calif., USA), using non-linear least squares fit. For detailed screening the compounds have been tested at seven concentrations in triplicate carrying out three to five separate binding experiments for human dopamine D2S and for human dopamine D3 receptors and expressed as mean±standard error of the mean (SEM). Ki values were calculated from the IC50 values according to Cheng-Prusoff equation (Cheng, Y. C., Prusoff, W. H. Biochem. Pharmacol. 1973, 22, 3099-3108.).

Test [2] concerns the target T2, recombinant human D2(short) dopamine receptor (Homo sapiens, UniProt P14416).
T2 construct: expressed in transfected cells; host or cells: CHO-D2S cells (per Hayes et al. 1992)
The test is described as follows: Dopamine D2S receptor binding assay ([3H]spiperone, CHO cell membranes). To be noted: human D2S receptors in CHO cells, 0.2 nM [3H]spiperone, mean ± SEM; read-out: Affinity Ki (D2). How it is done: as §1, §2
CHO-D2S cells, expressing the recombinant human D2(short) dopamine receptor gene, (Hayes, G. et al., J. Mol. Endocrinol. 1992, 6, 920-926) were grown in Dulbecco's modified Eagle's medium/nutrient mixture F12 1:1 mixture supplemented with 2 mM glutamine, 10% fetal bovine serum, and 10 μl·ml^−1 penicillin/streptomycin in an atmosphere of 5% CO2 at 37° C. (Gibco™, Karlsruhe, Germany).
as §3, §4

T2 sequence (P14416 1-414 isoform P14416-2): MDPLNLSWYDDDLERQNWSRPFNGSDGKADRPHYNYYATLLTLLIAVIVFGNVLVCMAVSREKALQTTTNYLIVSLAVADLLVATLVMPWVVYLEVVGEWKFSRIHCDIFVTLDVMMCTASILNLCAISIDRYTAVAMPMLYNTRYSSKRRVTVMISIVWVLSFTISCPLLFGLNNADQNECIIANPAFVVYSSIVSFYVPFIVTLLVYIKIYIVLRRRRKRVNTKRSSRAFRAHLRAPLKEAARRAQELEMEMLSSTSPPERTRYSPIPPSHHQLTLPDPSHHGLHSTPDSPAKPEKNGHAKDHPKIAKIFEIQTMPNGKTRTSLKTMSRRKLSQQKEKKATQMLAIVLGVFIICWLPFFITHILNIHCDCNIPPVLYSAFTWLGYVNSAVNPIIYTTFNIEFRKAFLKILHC
T1 sequence (P35462 whole entry): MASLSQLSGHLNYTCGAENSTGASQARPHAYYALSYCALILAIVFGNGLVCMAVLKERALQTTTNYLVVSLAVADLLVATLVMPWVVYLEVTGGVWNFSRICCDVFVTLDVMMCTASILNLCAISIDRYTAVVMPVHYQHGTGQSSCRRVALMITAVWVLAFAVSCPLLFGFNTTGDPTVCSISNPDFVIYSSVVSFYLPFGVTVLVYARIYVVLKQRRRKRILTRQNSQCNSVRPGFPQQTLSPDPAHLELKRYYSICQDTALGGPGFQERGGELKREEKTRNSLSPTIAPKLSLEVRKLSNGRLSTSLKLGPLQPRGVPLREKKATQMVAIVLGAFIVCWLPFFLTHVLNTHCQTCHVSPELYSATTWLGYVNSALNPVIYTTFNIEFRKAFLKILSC

As for `CCCN(CCCCNC(=O)c1ccccc1)C1CCc2ncsc2C1` (stereo not drawn) [Compound 1, N-{4-[Propyl-(4,5,6,7-tetrahydro-benzothiazol-6-yl)-amino]-butyl}-benzamide], in test [1], the Ki was found to be 2.26 ± 0.79 nM and the “Selectivity Ki(D2)/Ki(D3)” value is 746. Also, in test [2], the Ki turned out to be 1680 ± 382 nM.

Turning to `O=C(NCCCCNC1CCc2ncsc2C1)c1ccc2ccccc2c1` (stereo not drawn) [Compound 2, Naphthalene-2-carboxylic acid [4-(4,5,6,7-tetrahydro-benzothiazol-6-ylamino)-butyl]-amide], the Ki was 147 ± 30 nM in test [1] and 21000 ± 2550 nM in test [2]. For the same molecule, the “Selectivity Ki(D2)/Ki(D3)” value in test [1] was found to be 143.

Turning to `CN(CCCCNC(=O)c1ccc2ccccc2c1)C1CCc2ncsc2C1` (stereo not drawn) [Compound 3, Naphthalene-2-carboxylic acid {4-[methyl-(4,5,6,7-tetrahydro-benzothiazol-6-yl)-amino]-butyl}-amide], in test [1], the Ki was found to be 25.4 ± 9.6 nM and the “Selectivity Ki(D2)/Ki(D3)” value was 151. Further, the Ki in test [2] was found to be 3820 ± 1100 nM.

As to `CCN(CCCCNC(=O)c1ccc2ccccc2c1)C1CCc2ncsc2C1` (stereo not drawn) [Compound 4, Naphthalene-2-carboxylic acid {4-[ethyl-(4,5,6,7-tetrahydro-benzothiazol-6-yl)-amino]-butyl}-amide], the Ki was found to be 2.7 ± 0.94 nM in test [1] and 1570 ± 303 nM in test [2]. Besides, the “Selectivity Ki(D2)/Ki(D3)” value in test [1] is listed as 581.

In the case of `CCCN(CCCCNC(=O)c1ccc2ccccc2c1)C1CCc2ncsc2C1` (stereo not drawn) [Compound 5, Naphthalene-2-carboxylic acid {4-[propyl-(4,5,6,7-tetrahydro-benzothiazol-6-yl)-amino]-butyl}-amide], in test [1], the Ki turned out to be 1.16 ± 0.17 nM and the “Selectivity Ki(D2)/Ki(D3)” value was 751. Moreover, the inhibition constant (Ki) in test [2] is 873 ± 388 nM.

Consider `C=CCN(CCCCNC(=O)c1ccc2ccccc2c1)C1CCc2ncsc2C1` (stereo not drawn) [Compound 6, Naphthalene-2-carboxylic acid {4-[allyl-(4,5,6,7-tetrahydro-benzothiazol-6-yl)-amino]-butyl}-amide], for which, in test [1], the Ki was 0.95 ± 0.2 nM and the “Selectivity Ki(D2)/Ki(D3)” value was 486. Also, the Ki in test [2] was found to be 459 ± 83 nM.

Turning to `C#CCN(CCCCNC(=O)c1ccc2ccccc2c1)C1CCc2ncsc2C1` (stereo not drawn) [Compound 7, Naphthalene-2-carboxylic acid {4-[prop-2-ynyl-(4,5,6,7-tetrahydro-benzothiazol-6-yl)-amino]-butyl}-amide], the Ki in test [1] amounted to 7.76 ± 1.37 nM; in test [2], 9080 ± 684 nM. Moreover, the “Selectivity Ki(D2)/Ki(D3)” value in test [1] is recorded as 1170.

On to `CC#CCN(CCCCNC(=O)c1ccc2ccccc2c1)C1CCc2ncsc2C1` (stereo not drawn) [Compound 8, Naphthalene-2-carboxylic acid {4-[but-2-ynyl-(4,5,6,7-tetrahydro-benzothiazol-6-yl)-amino]-butyl}-amide], for which, in test [1], the Ki came out at 108 ± 40 nM and the “Selectivity Ki(D2)/Ki(D3)” value stood at 77. Besides, the Ki in test [2] is 8370 ± 3820 nM.

Turning to `O=C(NCCCCNC1CCc2ncsc2C1)c1cc2ccccc2s1` (stereo not drawn) [Compound 10, Benzo[b]thiophene-2-carboxylic acid [4-(4,5,6,7-tetrahydro-benzothiazol-6-ylamino)-butyl]-amide], in test [1], the Ki came out at 292 ± 41 nM and the “Selectivity Ki(D2)/Ki(D3)” value was 80. Moreover, the inhibition constant (Ki) in test [2] is 23400 ± 1220 nM.

Regarding `CN(CCCCNC(=O)c1cc2ccccc2s1)C1CCc2ncsc2C1` (stereo not drawn) [Compound 11, Benzo[b]thiophene-2-carboxylic acid {4-[methyl-(4,5,6,7-tetrahydro-benzothiazol-6-yl)-amino]-butyl}-amide], in test [1], the Ki came out at 52.6 ± 5.1 nM and the “Selectivity Ki(D2)/Ki(D3)” value is on record as 65. The inhibition constant (Ki) in test [2] stood at 3390 ± 388 nM.

Take `CCN(CCCCNC(=O)c1cc2ccccc2s1)C1CCc2ncsc2C1` (stereo not drawn) [Compound 12, Benzo[b]thiophene-2-carboxylic acid {4-[ethyl-(4,5,6,7-tetrahydro-benzothiazol-6-yl)-amino]-butyl}-amide]: the Ki is 2.92 ± 0.48 nM in test [1] and 2500 ± 463 nM in test [2]. Moreover, the “Selectivity Ki(D2)/Ki(D3)” value in test [1] was determined as 856.

`CCCN(CCCCNC(=O)c1cc2ccccc2s1)C1CCc2ncsc2C1` (stereo not drawn) [Compound 13, Benzo[b]thiophene-2-carboxylic acid {4-[propyl-(4,5,6,7-tetrahydro-benzothiazol-6-yl)-amino]-butyl}-amide]: the Ki is 16 ± 6 nM in test [1] and 2280 ± 105 nM in test [2]. Moreover, in test [1], the “Selectivity Ki(D2)/Ki(D3)” value is 141.

As for `CCN(CCCCNC(=O)c1ccc2ncsc2c1)C1CCc2ncsc2C1` (stereo not drawn) [Compound 14, Benzothiazole-6-carboxylic acid {4-[ethyl-(4,5,6,7-tetrahydro-benzothiazol-6-yl)-amino]-butyl}-amide], the results for the Ki in test [1] and in test [2] were 5.61 ± 0.3 nM and 2100 ± 327 nM, respectively. For the same molecule, the “Selectivity Ki(D2)/Ki(D3)” value in test [1] is given as 375.

As to `CCCN(CCCCNC(=O)c1ccc2ncsc2c1)C1CCc2ncsc2C1` (stereo not drawn) [Compound 15], the figures for the Ki in test [1] and in test [2] were 0.65 ± 0.09 nM and 347 ± 133 nM, respectively. The “Selectivity Ki(D2)/Ki(D3)” value in test [1] turned out to be 531.

Take `CCCN(CCCCNC(=O)C=Cc1ccccc1)C1CCc2ncsc2C1` (stereo not drawn) [Compound 16, N-{4-[Propyl-(4,5,6,7-tetrahydro-benzothiazol-6-yl)-amino]-butyl}-cinnamoylamide]: in test [1], the Ki was 8.11 ± 1.23 nM and the “Selectivity Ki(D2)/Ki(D3)” value is listed as 495. Besides, the Ki in test [2] is 4010 ± 383 nM.

On to `CCCN(CCCCNC(=O)C=Cc1ccc(Cl)cc1Cl)C1CCc2ncsc2C1` (stereo not drawn) [Compound 17, 2,4-Dichloro-N-{4-[propyl-(4,5,6,7-tetrahydro-benzothiazol-6-yl)-amino]-butyl}-cinnamoylamide], for which, in test [1], the Ki was determined as 2.41 ± 1 nM and the “Selectivity Ki(D2)/Ki(D3)” value is listed as 184. Moreover, in test [2], the Ki stood at 445 ± 55 nM.

`CCCN(CCCCNC(=O)C=Cc1ccc(F)cc1)C1CCc2ncsc2C1` (stereo not drawn) [Compound 18, 4-Fluoro-N-{4-[propyl-(4,5,6,7-tetrahydro-benzothiazol-6-yl)-amino]-butyl}-cinnamoylamide]: in test [1], the Ki is 0.57 ± 0.04 nM and the “Selectivity Ki(D2)/Ki(D3)” value worked out at 1479. In addition, the Ki in test [2] turned out to be 842 ± 35 nM.

As for `CCCN(CCCCNC(=O)c1cnc(-c2ccc(Cl)cc2)s1)C1CCc2ncsc2C1` (stereo not drawn) [Compound 19, 2-(4-Chloro-phenyl)-thiazole-5-carboxylic acid {4-[propyl-(4,5,6,7-tetrahydro-benzothiazol-6-yl)-amino]-butyl}-amide], in test [1], the Ki is 83 ± 2 nM and the “Selectivity Ki(D2)/Ki(D3)” value is on record as 30. Besides, the Ki in test [2] is 2520 ± 144 nM.

Take `CCCN(CCCCNC(=O)C1CCCCC1)C1CCc2ncsc2C1` (stereo not drawn) [Compound 20, Cyclohexanecarboxylic acid {4-[propyl-(4,5,6,7-tetrahydro-benzothiazol-6-yl)-amino]-butyl}-amide]: the Ki in test [1] came to 2.62 ± 0.16 nM; in test [2] it was 1530 ± 297 nM. In addition, the “Selectivity Ki(D2)/Ki(D3)” value in test [1] was 582.

Take `CCCN(CCCCNC(=O)N1CCCCC1)C1CCc2ncsc2C1` (stereo not drawn) [Compound 21, Piperidine-1-carboxylic acid {4-[propyl-(4,5,6,7-tetrahydro-benzothiazol-6-yl)-amino]-butyl}-amide]: in test [1], the Ki came out at 6.46 ± 3.25 nM and the “Selectivity Ki(D2)/Ki(D3)” value is given as 1152. In test [2], the Ki was found to be 7440 ± 2290 nM.

Regarding `CCCN(CCCCNC(=O)NC1CCCCC1)C1CCc2ncsc2C1` (stereo not drawn) [Compound 22, 1-Cyclohexyl-3-{4-[propyl-(4,5,6,7-tetrahydro-benzothiazol-6-yl)-amino]-butyl}-urea], in test [1], the Ki was 2.97 ± 1.23 nM and the “Selectivity Ki(D2)/Ki(D3)” value turned out to be 1642. In addition, the Ki in test [2] was found to be 4870 ± 1050 nM.

Usually Ki stands for a measure of affinity in units of concentration, obtained from inhibition or displacement.
